Test results published in ChEMBL document CHEMBL1201862, “PubChem BioAssay data set” (2004).
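Tested at 5 concentrations; 48 h exposure; 96-well plates; endpoints linearly interpolated, else capped at highest concentration. At the GI50, growth is halved.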 Active and inactive are the calls of the source. No stated cut-off is given here; in the data, active = GI50 up to about 1.1 µM and inactive = higher.

Tests used:
Experiment in all cases: growth of human tumour cells (NCI), 48 h
[1] = system: 786-0
[2] = system: A549
[3] = system: ACHN
[4] = system: CAKI-1
[5] = system: CCRF-CEM
[6] = system: COLO 205
[7] = system: DLD-1
[8] = system: DMS-114
[9] = system: EKVX
[10] = system: HCT-116
[11] = system: HCT-15
[12] = system: HL-60
[13] = system: HOP-18
[14] = system: HOP-62
[15] = system: HOP-92
[16] = system: HT-29
[17] = system: IGROV-1
[18] = system: K562
[19] = system: KM-20L2
[20] = system: KM12
[21] = system: LXFL 529
[22] = system: M14
[23] = system: M19-MEL
[24] = system: MOLT-4
[25] = system: Malme-3M
[26] = system: NCI-H226
[27] = system: NCI-H23
[28] = system: NCI-H460
[29] = system: NCI-H522
[30] = system: OVCAR-3
[31] = system: OVCAR-4
[32] = system: OVCAR-8
[33] = system: RPMI-8226
[34] = system: RXF 393
[35] = system: RXF 631
[36] = system: SF-268
[37] = system: SF-295
[38] = system: SF-539
[39] = system: SK-MEL-28
[40] = system: SK-MEL-2
[41] = system: SK-MEL-5
[42] = system: SK-OV-3
[43] = system: SN12C
[44] = system: SNB-19
[45] = system: SNB-75
[46] = system: SR
[47] = system: SW-620
[48] = system: TK-10
[49] = system: U-251
[50] = system: UACC-257
[51] = system: UACC-62
[52] = system: UO-31
[53] = system: XF498
[54] = system: A498
[55] = system: DMS-273
[56] = system: HCC 2998
[57] = system: OVCAR-5
[58] = system: SNB-78

## NC(=O)NC(=O)C1CCC(=O)N1S(=O)(=O)c1ccc(Cl)cc1 (stereo not drawn)
[1]
  GI50: > 100 µM (inactive)
[2]
  GI50: > 100 µM (inactive)
[3]
  GI50: > 100 µM (inactive)
[4]
  GI50: > 100 µM (inactive)
[5]
  GI50: 77.4 µM (inactive)
[6]
  GI50: > 100 µM (inactive)
[7]
  GI50: > 100 µM (inactive)
[8]
  GI50: > 100 µM (inactive)
[9]
  GI50: > 100 µM (inactive)
[10]
  GI50: > 100 µM (inactive)
[11]
  GI50: > 100 µM
[12]
  GI50: > 100 µM (inactive)
[13]
  GI50: > 100 µM (inactive)
[14]
  GI50: > 100 µM (inactive)
[15]
  GI50: > 100 µM (inactive)
[16]
  GI50: > 100 µM (inactive)
[17]
  GI50: > 100 µM (inactive)
[18]
  GI50: > 100 µM (inactive)
[19]
  GI50: > 100 µM (inactive)
[20]
  GI50: > 100 µM (inactive)
[21]
  GI50: > 100 µM (inactive)
[22]
  GI50: > 100 µM (inactive)
[23]
  GI50: > 100 µM (inactive)
[24]
  GI50: > 100 µM (inactive)
[25]
  GI50: > 100 µM (inactive)
[26]
  GI50: > 100 µM (inactive)
[27]
  GI50: > 100 µM (inactive)
[28]
  GI50: > 100 µM (inactive)
[29]
  GI50: 63 µM (inactive)
[30]
  GI50: > 100 µM (inactive)
[31]
  GI50: > 100 µM (inactive)
[32]
  GI50: > 100 µM (inactive)
[33]
  GI50: > 100 µM (inactive)
[34]
  GI50: > 100 µM (inactive)
[35]
  GI50: > 100 µM (inactive)
[36]
  GI50: > 100 µM (inactive)
[37]
  GI50: > 100 µM (inactive)
[38]
  GI50: > 100 µM (inactive)
[39]
  GI50: > 100 µM (inactive)
[40]
  GI50: > 100 µM (inactive)
[41]
  GI50: > 100 µM (inactive)
[42]
  GI50: > 100 µM (inactive)
[43]
  GI50: > 100 µM (inactive)
[44]
  GI50: > 100 µM (inactive)
[45]
  GI50: > 100 µM (inactive)
[46]
  GI50: > 100 µM (inactive)
[47]
  GI50: > 100 µM (inactive)
[48]
  GI50: > 100 µM (inactive)
[49]
  GI50: > 100 µM (inactive)
[50]
  GI50: > 100 µM (inactive)
[51]
  GI50: > 100 µM (inactive)
[52]
  GI50: > 100 µM (inactive)
[53]
  GI50: > 100 µM (inactive)

## CC(C)N(C(=O)C1(C)CC1)C(C)C
[1]
  GI50: > 100 µM (inactive)
[54]
  GI50: > 100 µM (inactive)
[2]
  GI50: > 100 µM (inactive)
[3]
  GI50: > 100 µM (inactive)
[4]
  GI50: > 100 µM (inactive)
[5]
  GI50: > 100 µM (inactive)
[6]
  GI50: > 100 µM (inactive)
[7]
  GI50: > 100 µM (inactive)
[8]
  GI50: > 100 µM (inactive)
[55]
  GI50: > 100 µM (inactive)
[9]
  GI50: > 100 µM (inactive)
[56]
  GI50: > 100 µM (inactive)
[10]
  GI50: > 100 µM (inactive)
[11]
  GI50: > 100 µM
[12]
  GI50: > 100 µM (inactive)
[13]
  GI50: > 100 µM (inactive)
[14]
  GI50: > 100 µM (inactive)
[15]
  GI50: > 100 µM (inactive)
[16]
  GI50: > 100 µM (inactive)
[17]
  GI50: > 100 µM (inactive)
[18]
  GI50: > 100 µM (inactive)
[19]
  GI50: > 100 µM (inactive)
[20]
  GI50: > 100 µM (inactive)
[21]
  GI50: > 100 µM (inactive)
[22]
  GI50: > 100 µM (inactive)
[23]
  GI50: > 100 µM (inactive)
[24]
  GI50: > 100 µM (inactive)
[25]
  GI50: > 100 µM (inactive)
[26]
  GI50: > 100 µM (inactive)
[27]
  GI50: > 100 µM (inactive)
[29]
  GI50: > 100 µM (inactive)
[30]
  GI50: > 100 µM (inactive)
[31]
  GI50: > 100 µM (inactive)
[57]
  GI50: > 100 µM (inactive)
[32]
  GI50: > 100 µM (inactive)
[33]
  GI50: > 100 µM (inactive)
[34]
  GI50: > 100 µM (inactive)
[35]
  GI50: > 100 µM (inactive)
[36]
  GI50: > 100 µM (inactive)
[37]
  GI50: > 100 µM (inactive)
[38]
  GI50: > 100 µM (inactive)
[39]
  GI50: > 100 µM (inactive)
[40]
  GI50: > 100 µM (inactive)
[41]
  GI50: > 100 µM (inactive)
[42]
  GI50: > 100 µM (inactive)
[43]
  GI50: > 100 µM (inactive)
[44]
  GI50: > 100 µM (inactive)
[45]
  GI50: > 100 µM (inactive)
[58]
  GI50: > 100 µM (inactive)
[47]
  GI50: > 100 µM (inactive)
[49]
  GI50: > 100 µM (inactive)
[50]
  GI50: > 100 µM (inactive)
[51]
  GI50: > 100 µM (inactive)
[52]
  GI50: > 100 µM (inactive)
[53]
  GI50: > 100 µM (inactive)
